One data set has as its system T-type Ca^2+ channel. The data set can be described thus: T-type calcium channel inhibitory effect (whole-cell patch clamp, hippocampal CA1 pyramidal cells). The conditions noted are these: read-out: T-type Ca^2+ channel inhibitory effect IC50; suppression of peak current after one minute of application; rat hippocampal CA1 pyramidal cells. In general terms: The patch-clamp technique gives a direct electrical read-out from membranes.

The next data set concerns DBA/2N type mice. Description: Audiogenic seizure suppressing effect. Particulars: Mus musculus, ip, 20 min, compound 10 mg/kg, i.p.; audio stimulus after 20 minutes; suppression of average seizure score; read-out: Antiseizure effect (suppression rate %). In kind it is in vivo. As for the experimental part:
Audiogenic Seizure Suppressing Effect
The audiogenic seizure suppressing effect of the compounds was evaluated by the method of Sarro et al. [G. B. De Sarro et al., Br. J. Pharmacol., 93, 247 (1988)]. That is, the compound dissolved in 10% 2-hydroxypropyl-β-cyclodextrin was administered intraperitoneally to DBA/2N type mice (male, 3 weeks old). After 20 minutes, a supersonic washer was used to apply audio stimulus of at least 90 dB for one minute. The wild running (WR), clonic seizures (clonus), tonic seizures (tonus), and respiratory arrest (RA) were observed.

In another data set the test system is Sodium channel. Description: Inhibitory effect of veratrizine-induced sodium channel activity (synaptosome membrane potential, Rhodamine 6G). The class given is biochemical, Wistar rats. Particulars: compound 0.1 μM, rat brain synaptozomes, veratridine-induced depolarization. The procedure:
Inhibitory Effect of Veratrizine-induced Sodium Channel Activity
The membrane potential of the synaptozomes prepared from the brain membrane of Wistar rats (male, 10 to 12 weeks old) was measured by the method of Aiuchi et al. (t. Aiuchi et al: Biochimi. Biophys. Acta. 771, 228 (1984)) using a membrane potential sensitive fluorescent dye Rhodamine 6G to evaluate the effects of suppression of the compound on the veratrizine-inducing depolarization response.

Data set [1] can be described thus: Acute toxicity after intravenous injection. The conditions noted are these: mouse, in vivo, ddY mice (male, 6 weeks old), death rate up to 24 hours, read-out: 50% lethal dosage LD50 of acute toxicity. The source says: The compound according to the present invention is low in toxicity.

Counter-ions that a name gives are not always drawn.

Method for T-type Ca^2+ channel: T-Type Calcium Channel Inhibitory Effect
The hippocampal CA1 pyramidal cells were isolated from Wistar rats (female, 1 week old) according to the method reported by Takahashi et al. [K. Takahashi et al.; J. Pharmacol. Exp. Ther., 256, 169 (1991)] and the T-type calcium current under conditions of a fixed membrane potential was measured using the whole-cell configration of the patch clamp technique. The effects of the compounds were evaluated from the rate of suppression of the peak current after one minute of application using the concentration clamp method.

With `O[C@@H](COc1ccccc1)CN1CCC(O)(c2ccc(-c3ccccc3)c(F)c2)CC1` [Compound 43, (R)-4-(3-fluoro-4-phenyl)phenyl-1-(2-hydroxy-3-phenoxy)propyl-4-piperidinol], the IC50 in the data set with T-type Ca^2+ channel worked out at 1400 nM. In the data set on DBA/2N type mice, the inhibition in vivo at 10 mg/kg stood at 90%. In the data set with Sodium channel, the “Anti-veratridine effect (inhibiting rate %)” value was 21.2%.
Turning to `OC1(c2ccc(-c3ccccc3)c(F)c2)CCN(C/C=C/c2ccccc2)CC1` [Compound 17, (E)-4-(3-fluoro-4-phenyl)phenyl-1-(3-phenyl-2-propenyl)-4-piperidinol], in the data set with T-type Ca^2+ channel, the IC50 stood at 1900 nM. Moreover, the 50% lethal dose (LD50) at 24 h in data set [1] stood at 32 mg/kg. The inhibition in vivo at 10 mg/kg in the data set with DBA/2N type mice is 88%. Also, the “Anti-veratridine effect (inhibiting rate %)” value in the data set on Sodium channel stood at 26.8%.
Regarding `OC(COc1ccccc1)CN1CCC(O)(c2ccc(Cc3ccc(F)cc3)cc2)CC1` (stereo not drawn) [Compound 39, 4-[4-(4-fluorophenyl)methylphenyl]-1-(2-hydroxy-3-phenoxy)propyl-4-piperidinol], in the data set with T-type Ca^2+ channel, the 50% inhibitory concentration (IC50) was determined as 1300 nM. Further, in the data set with DBA/2N type mice, the inhibition in vivo at 10 mg/kg came to 90%. Also, the “Anti-veratridine effect (inhibiting rate %)” value in the data set on Sodium channel (0.1 µM) amounted to 18.7%.
`O=C(CN1CCC(O)(c2ccc(Oc3ccc(F)cc3)cc2)CC1)c1ccccc1` (as salt: fumarate) displayed a melting point of 50 to 52 °C.
As to `OC1(c2ccc(Oc3ccccc3)cc2)CCN(C/C=C/c2ccccc2)CC1` [Compound 34, (E)-4-(4-phenoxy)phenyl-1-(3-phenyl-2-propenyl)-4-piperidinol], in the data set with T-type Ca^2+ channel, the half-inhibitory concentration (IC50) was determined as 1700 nM. Besides, the inhibition in vivo at 10 mg/kg in the data set on DBA/2N type mice is 80%. Moreover, the “Anti-veratridine effect (inhibiting rate %)” value with Sodium channel amounted to 29.9%.
Consider `OC1(c2ccc(Oc3ccc(F)cc3)cc2)CCN(C/C=C/c2ccccc2)CC1` (as salt: fumarate), for which the melting point fell in the range of 148 to 150 °C.
In the case of `O=C(CN1CCC(O)(c2ccc(-c3ccccc3)c(F)c2)CC1)c1ccccc1` [Compound 20, 4-(3-fluoro-4-phenyl)phenyl-1-(2-phenyl-2-oxoethyl)-4-piperidinol], in the data set with T-type Ca^2+ channel, the concentration for half-maximal inhibition (IC50) was found to be 3000 nM. In addition, in the data set on DBA/2N type mice, the inhibition in vivo at 10 mg/kg is 91.3%. Further, in the data set with Sodium channel, the “Anti-veratridine effect (inhibiting rate %)” value is 20.2%.
`O=C(CN1CCC(O)(c2ccc(Cc3ccc(F)cc3)cc2)CC1)NC1(c2ccccc2)CC1` [Compound 58, N-(1-phenyl)cyclopropyl-4-hydroxy-4-[4-(4-fluorophenyl)methylphenyl]-1-piperidinacetamide]: the inhibition in vivo at 10 mg/kg with DBA/2N type mice amounted to 51.7%. Moreover, the “Anti-veratridine effect (inhibiting rate %)” value in the data set on Sodium channel amounted to 11.3%.
Regarding `O[C@H](COc1ccccc1)CN1CCC(O)(c2ccc(-c3ccccc3)c(F)c2)CC1` [Compound 42, (S)-4-(3-fluoro-4-phenyl)phenyl-1-(2-hydroxy-3-phenoxy)propyl-4-piperidinol], the half-maximal inhibitory concentration (IC50) in the data set with T-type Ca^2+ channel stood at 550 nM. For the same molecule, the inhibition in vivo at 10 mg/kg in the data set on DBA/2N type mice amounted to 72%. Further, the “Anti-veratridine effect (inhibiting rate %)” value in the data set on Sodium channel is given as 21%.
For `O[C@H](COc1ccccc1)CN1CCC(O)(c2ccc(Oc3ccc(F)cc3)cc2)CC1` (as salt: fumarate), the melting point lay in the range of 48 to 50 °C.

As usually defined, the IC50 is the concentration that inhibits the measured activity by half. In general, LD50 refers to the dose expected to kill half of the subjects tested. Broadly, the melting point is the temperature of the solid-liquid transition.
